In experiment [1] the test system is nodose neurons. As to the kind of experiment: Calcium imaging of dissociated Phox2bCRE_GCaMP6s nodose neurons. In kind it is cell-based, mouse. The procedure: For neurons, Phox2bCRE_GCaMP6s (n=3) nodose neurons were dissociated and plated. Nodose ganglia were dissected and digested in Liberase (Roche, 5401054001). Neurons were washed and filtered through a 70 μm cell strainer, then plated on 12 mm coverslips and placed in an incubator overnight. Cells were imaged 1-2 days later. Coverslips were placed in the recording chamber of a Zeiss Examiner Z1 and imaged with a Hamamatsu camera (Orca-flash4.0; C11440) using the Zeiss ZEN software package. For enteroendocrine cells, CckCRE_tdTomato organoids with transduced with ΔG-rabies-GCaMP6s. Organoids were imaged using multi photon microscopy 3-4 days after transduction. Imaging buffer (in mM: 140 NaCl, 5 KCl, 2 CaCl2, 2 MgCl2, 10 HEPES) was continuously perfused over the coverslips. […] Images were analyzed with Fiji ([…]), and cell traces were plotted with Matlab.

For experiment [2], the system named is vagal nodose neurons connected to enteroendocrine cells. As to the kind of experiment: Patch-clamp electrophysiology of nodose neurons co-cultured with enteroendocrine cells. In kind it is cell-based, mouse. As to conditions: D-glucose (10 mM); for excitatory postsynaptic potentials and action potentials in connected neurons: co-culture. The procedure: The small intestines of CckGFP and CckCRE_ChR2-tdTomato mice were dissected and flushed twice with cold PBS. The intestine was cut open lengthwise and cut again into ˜1 cm pieces. Tissue pieces were incubated with 3 mM EDTA at 4° C. for 15 minutes then at 37° C. for 15 minutes. New cold PBS was added and villi and crypts were mechanically detached. Villi and crypts were spun down and further digested in Collagenase and Dispase. Cells were spun down and re-suspended in L-15 media with 5% FBS and DNase to prevent cell clumping. Cells were passed through a 70 μm then 40 μm cell strainer to isolate single cells. Then cells were sorted using Fluorescence Activated Cell sorting (BD FACSAria) selecting for GFP fluorescence cells. Cells were sorted into culture media: 10 μl/ml Glutamax, 10 μl/ml HEPES, 20 μl/ml Penicillin-Streptomycin, 10 μl/ml N2 supplement, 20 μl/ml B27 supplement, 0.25 μl/ml EGF, 0.5 μl/ml Noggin, 1 μl/ml r-Spondin and 1 μl/ml NGF in Advanced DMEM/f12. Sorted cells were plated on Matrigel coated 12 mm coverslips at a concentration of ˜8-10 k enteroendocrine cells per coverslip. Nodose neurons were dissected and incubated with Liberase digestion enzyme. Enzyme was washed off and replaced with media. Single cells were dissociated by mechanical force and filtered through a 70 μm cell strainer. Neurons in media were plated evenly on up to 8 coverslips with enteroendocrine cells. Patch-clamp electrophysiology was performed 1-5 days after plating.
Enteroendocrine cells and nodose neurons were co-cultured as described above. Co-culture coverslips were placed in the recording chamber filled with extracellular solution. Recordings were carried out at room temperature using a MultiClamp 700B amplifier (Axon Instruments), digitized using a Digidata 1550A (Axon Instruments) interface, and pClamp software (Axon Instruments) for data acquisition. Data was filtered at 1 kHz and sampled at 10 kHz. CCK-producing enteroendocrine cells were identified by GFP expression and neurons by their morphology and lack of fluorescence. Recordings were made using borosilicate glass pipettes pulled to ˜3.5 MΩ resistance [DVB4]. Extracellular solution contained (in mM): 140 NaCl, 5 KCl, 2 CaCl2, 2 MgCl2, 10 HEPES, pH 7.4 (300-305 mOsmol). For voltage-clamp recordings, intracellular solution contained (in mM): 140 CsF, 10 NaCl, 0.1 CaCl2, 2 MgCl2, 1.1 EGTA, 10 HEPES, 10 sucrose (pH, 7.25, 290-295 mOsmol). For current-clamp recordings, intracellular solution contained (in mM): 140 KCl, 0.5 EGTA, 5 HEPES, 3 Mg-ATP, 10 sucrose (pH, 7.25, 290-295 mOsmol). Neurons were held at −70 mV for 5 min after patching in voltage-clamp mode (to stabilize cells), and then switched to the current-clamp mode. At the resting membrane potential, cell properties such as input resistance, and spike threshold were determined using 200 ms steps from −40 pA to 100 pA in 20 pA increment. […] After glucose exposure, neurons were tested with a current or voltage pulse to confirm the health of the cell. For glutamate receptor blocker experiments, the […]® Micro-perfusion system (Automate Scientific, Inc.) was used. Once the neuron was patched, the […]® nozzle was brought to within 100 μm of the cell, while extracellular solution was perfusing. Kynurenic acid (3 mM) was perfused, then washed for 5 minutes after and the neuron was tested again. EPSC responses were recorded for 1 second after light stimulation. Data are presented as the mean±S.E.M. and significance was determined using a two-tailed Student's t test.
For orientation: In patch-clamp work, channel activity is measured electrically.

In experiment [3] the test system is nodose neurons. As to the kind of experiment: Patch-clamp electrophysiology of nodose neurons cultured alone. As to conditions: 10-20 mM D-glucose. Format: cell-based, mouse.
Experiment [4] deals with iGluSnFR-HEK cells. As to the kind of experiment: iGluSnFR-HEK cells cultured alone, multiphoton imaging. Format: cell-based. As to conditions: D-glucose 40 mM. The procedure:
HEK 293/17 cells (ATCC CRL-11268) were maintained in DMEM (Gibco 11965) supplemented with 10% FBS (Corning 35-010-CV), Glutamax, and non-essential amino acids (both Gibco). Cells were transfected with 1 ug plasmid pCMV(MinDis) iGluSnFR (Addgene 41732) using 1 ul Lipofectamine 2000 in Optimem (Gibco) in 24-well plates.
The 5.2 Kb iGluSnFR (pCMV(MinDis).iGluSnFR was a gift from Loren Looger; Addgene plasmid #41732) was moved to the zeocin resistant backbone of Addgene #51694 (DRH296: FCK-Optopatch2 was a gift from Adam Cohen) as a NdeI+XhoI fragment. The resulting plasmid (pMEK8) was transfected into HEK 293/17 cells (ATCC CRL-11268) using 1 μl Lipofectamine 2000/ug DNA. Cells were maintained in DMEM (Gibco 11965) supplemented with 10% FBS (Corning 35-010-CV), Glutamax, non-essential amino acids (both Gibco) and 3 μl/ml zeocin ([…], Invitrogen).
CckCRE_tdTomato enteroendocrine cells were isolated as described above. Isolated cells were mixed with iGluSnFR-HEK cells at a ratio of 10:1, then plated on 1% Matrigel coated coverslips. Control iGluSnFR-HEK cells were plated alone. Cells were incubated for 12-18 hours before imaging. Coverslips were imaged using a multiphoton microscopy system (Bruker Ultima IV with a Chameleon Vision II tunable laser). Imaging frames were captured at 1.876 fps, using 920 nm light. Imaging series were analyzed using Fiji (ImageJ), and cell traces were plotted with Excel.

Setting [5] is: 20 mM D-glucose, mice=3, cells=246.

“Also recorded” adds a separate entry of the source.

For the molecule `O=C[C@H](O)[C@@H](O)[C@H](O)[C@H](O)CO` [D-glucose], the “percent of Fast Blue positive nodose neurons (innervating small intestine) that did not respond” value in experiment [1] (20 mM D-glucose, mice=2, cells=73) turned out to be 100%. Besides, the “percent of nodose neurons that did not respond” value in experiment [1] (setting [5]) came out at 97.3±1.9%. The “percent of nodose neurons that responded” value in experiment [1] (setting [5]) worked out at 2.7±1.9%. Moreover, in experiment [1] (D-glucose (10 mM) as printed, n=246 cells from 3 mice), the “calcium transients in dissociated nodose ganglia neurons” value was “did not elicit calcium transients”. Further, the “calcium response in Fast Blue labeled nodose neurons” value in experiment [1] (D-glucose (20 mM)) is listed as “no calcium response was observed”. Besides, the “excitatory postsynaptic potentials and action potentials in connected neurons” value was “evoke excitatory postsynaptic potentials and action potentials” in experiment [2]; “evoked EPSCs; also recorded: induced excitatory post-synaptic potentials and action potential spikes” in experiment [2] (listed as glucose). In experiment [2] (current-clamp, n=5 pairs), the “action potentials in the connected neurons (average)” value was found to be 2±0.32. For the same molecule, the “average current of the excitatory post-synaptic potentials (EPSPs)” value in experiment [2] (voltage-clamp, n=6) is recorded as 61.65±15.21 pA. The “average frequency of the excitatory post-synaptic potentials” value in experiment [2] (voltage-clamp, n=6) came out at 0.86±0.17 Hz. The results for the “excitatory currents / action potentials in nodose neurons cultured alone” value in experiment [3] and in experiment [3] (listed as glucose) were “neither excitatory currents nor action potentials were observed” and “did not activate”, respectively. The figures for the “fluorescence response of iGluSnFR-HEK cells cultured alone” value in experiment [4] and in experiment [4] (listed as Dglucose) were “did not respond” and “not”, respectively.

These data come from patent publication US20200147149A1, “COMPOSITIONS AND METHODS FOR THE MODULATION OF GUT SENSORY CELLS” (Duke University, priority 2017, published 2020).
